Source: patent US6521567B2, “Herbicidal composition” (priority 2001, dated 2003)

System: common cocklebur
Assay: Test Example 4: field spray, herbicidal activity (flumiclorac-pentyl)
Format: in vivo, Xanthium strumarium
Conditions: index 0-100; common cocklebur height about 65 cm; 100 g/hectare alone; 1000 liters per hectare spray; after 4 days
Method: The herbicidal effect is evaluated with indices of 0 to 100 at intervals of 5, wherein “0” means that there was no or little difference in the degree of germination or growth between the treated plants and the untreated plants at the time of examination, “100” means that the test plants died completely.
Ten (10) parts of flumiclorac-pentyl were dissolved in 80 parts of xylene, after adding 10 parts of Sorpol 3005X (produced by Toho Chemical), the solution was well stirred and mixed to give 10% emulsifiable concentrate of flumiclorac-pentyl. From the aqueous dilution of said 10% emulsifiable concentrate of flumiclorac-pentyl, with a aqueous dilution of 25% emulsifiable concentrate of thiometon (commercial name: Ekatin EC, produced by Sankyo), 45% emulsifiable concentrate of oxydeprofos (commercial name: Estox EC, produced by Nihon Bayer Agrochem) or 50% emulsifiable concentrate of fenthion (commercial name: baycid EC, produced by Nihon Bayer Agrochem), prepared each aqueous dilution of the prescribed concentration of the present formulation.
Their aqueous dilution of the present formulation, with 1000 liters per hectare, were sprayed over a place in the field where common cocklebur (the height: about 65 cm) were growing. After 4 days from the application, the herbicidal activity were examined.

Compound `CCCCCOC(=O)COc1cc(N2C(=O)C3=C(CCCC3)C2=O)c(F)cc1Cl` [flumiclorac-pentyl, pentyl[2-chloro-5-(cyclohex-1-ene-1,2-dicarboximido)-4-fluorophenoxy]acetate] has a Herbicidal activity of 30.
